Test results as given in patent US20160122342A1, “ENHANCER OF ZESTE HOMOLOG 2 INHIBITORS” (GLAXOSMITHKLINE INTELLECTUAL PROPERTY (NO.2) LIMITED, priority 2013, published 2016).
Structures can show the parent of a compound that is named as a salt.

Target: T1, EZH2 within the PRC2 complex (Homo sapiens, UniProt Q15910)
T1 construct: FLAG; made in house; host or cells: Sf9 cells
Test: Assay Protocol 2: EZH2 methyltransferase scintillation proximity assay, biotinylated histone H3 peptide substrate
Type: biochemical
Conditions: SPA, 3H-SAM, biotinylated unmethylated histone H3K27 peptide substrate, 5-member PRC2 complex
Experimental: Compounds contained herein were evaluated for their ability to inhibit the methyltransferase activity of EZH2 within the PRC2 complex. […] The peptides were captured on streptavidin-coated SPA beads and the resulting signal was read on a ViewLux plate reader. • 4. Prepare 10 mM stock of compounds from solid in 100% DMSO. • 5. […] Dispense 10 nL of compound from the dilution plate into reaction plates (Corning, 384-well polystyrene NBS, Cat#3673). Prepare the following solutions: • 7. 1× Base Buffer, 50 mM Tris-HCl, pH 8, 2 mM MgCl2: Per 1 L of base buffer, combine 1 M Tris-HCl, pH 8 (50 mL), 1 M MgCl2 (2 mL), and distilled water (948 mL). • 8. 1× Assay Buffer: Per 10 mL of 1× Assay Buffer, combine 1× Base Buffer (9.96 mL), 1 M DTT (40 uL), and 10% Tween-20 (1 uL) to provide a final concentration of 50 mM Tris-HCl, pH 8, 2 mM MgCl2, 4 mM DTT, 0.001% Tween-20. • 9. 2× Enzyme Solution: […] SPA Bead Solution: Per 1 mL of SPA Bead Solution, combine Streptavidin coated SPA beads (PerkinElmer, Cat# RPNQ0261, 40 mg) and 1× Assay Buffer (1 mL) to provide a working concentration of 40 mg/mL. • 11. 2× Substrate Solution: Per 10 mL of 2× Substrate Solution, combine 40 mg/mL SPA Bead Solution (375 uL), 1 mM biotinylated histone H3K27 peptide (200 uL), 12.5 uM 3H-SAM (240 uL; 1 mCi/mL), 1 mM cold SAM (57 uL), and 1× Assay Buffer (9.13 mL) to provide a final concentration of 0.75 mg/mL SPA Bead Solution, 10 uM biotinylated histone H3K27 peptide, 0.15 uM 3H-SAM (˜12 uCi/mL 3H-SAM), and 2.85 uM cold SAM. • 12. 2.67× Quench Solution: Per 10 mL of 2.67× Quench Solution, combine 1× Assay Buffer (9.73 mL) and 10 mM cold SAM (267 uL) to provide a final concentration of 100 uM cold SAM. • 3. […] Dispense 5 uL/well of 1× Assay Buffer to column 18 (low control reactions). • 11. Dispense 5 uL/well of 2× Substrate Solution to columns 1-24 (note: substrate solution should be mixed to ensure homogeneous bead suspension before dispensing into matrix reservoir). • 12. Dispense 5 uL/well of 2× Enzyme Solution to columns 1-17, 19-24. • 13. Incubate the reaction for 60 min at room temperature. • 5. Dispense 6 uL/well of the 2.67× Quench Solution to columns 1-24. • 6. Seal assay plates and spin for ˜1 min at 500 rpm. • 7. Dark adapt plates in the ViewLux instrument for 15-60 min. • 2. Read the assay plates on the Viewlux Plate Reader utilizing the 613 nm emission filter or clear filter (300 s exposure). Reagent addition can be done manually or with automated liquid handler. Percent inhibition was calculated relative to the DMSO control for each compound concentration and the resulting values were fit using standard IC50 fitting parameters within the ABASE data fitting software package.

T1 sequence (Q15910 whole entry): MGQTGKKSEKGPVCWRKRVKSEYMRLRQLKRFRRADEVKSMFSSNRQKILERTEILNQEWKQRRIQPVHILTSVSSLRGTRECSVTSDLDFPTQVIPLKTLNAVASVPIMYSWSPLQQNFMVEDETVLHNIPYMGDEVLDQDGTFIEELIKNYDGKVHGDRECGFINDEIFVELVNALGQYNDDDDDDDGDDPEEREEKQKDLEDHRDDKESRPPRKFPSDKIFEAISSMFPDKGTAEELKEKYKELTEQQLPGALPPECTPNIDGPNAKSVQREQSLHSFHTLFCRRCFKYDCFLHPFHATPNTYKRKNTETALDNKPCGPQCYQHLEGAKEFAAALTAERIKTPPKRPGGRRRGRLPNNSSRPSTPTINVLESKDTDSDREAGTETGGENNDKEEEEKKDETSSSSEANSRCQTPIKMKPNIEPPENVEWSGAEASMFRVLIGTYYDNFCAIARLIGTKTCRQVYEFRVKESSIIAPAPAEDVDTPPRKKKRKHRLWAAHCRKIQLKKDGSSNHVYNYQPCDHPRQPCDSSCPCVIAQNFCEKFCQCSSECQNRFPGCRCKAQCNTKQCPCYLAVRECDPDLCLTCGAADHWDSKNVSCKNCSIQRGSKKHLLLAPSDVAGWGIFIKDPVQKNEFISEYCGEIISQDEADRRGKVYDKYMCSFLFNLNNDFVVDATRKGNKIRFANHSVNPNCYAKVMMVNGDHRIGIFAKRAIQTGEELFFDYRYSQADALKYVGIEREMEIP
T1 sequence (O75530 whole entry partner): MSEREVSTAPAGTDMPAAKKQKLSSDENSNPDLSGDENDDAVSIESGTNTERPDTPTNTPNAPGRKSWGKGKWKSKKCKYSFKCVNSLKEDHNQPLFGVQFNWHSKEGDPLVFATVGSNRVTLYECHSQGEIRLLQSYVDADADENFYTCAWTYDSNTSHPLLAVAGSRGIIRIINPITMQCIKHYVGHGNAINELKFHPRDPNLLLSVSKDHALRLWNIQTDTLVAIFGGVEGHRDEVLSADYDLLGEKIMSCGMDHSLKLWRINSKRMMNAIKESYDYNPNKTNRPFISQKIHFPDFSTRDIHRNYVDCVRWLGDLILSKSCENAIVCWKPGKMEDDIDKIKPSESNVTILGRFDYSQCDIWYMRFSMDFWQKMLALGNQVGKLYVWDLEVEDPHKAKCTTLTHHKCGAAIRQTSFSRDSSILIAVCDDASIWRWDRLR
T1 sequence (Q15022 whole entry partner): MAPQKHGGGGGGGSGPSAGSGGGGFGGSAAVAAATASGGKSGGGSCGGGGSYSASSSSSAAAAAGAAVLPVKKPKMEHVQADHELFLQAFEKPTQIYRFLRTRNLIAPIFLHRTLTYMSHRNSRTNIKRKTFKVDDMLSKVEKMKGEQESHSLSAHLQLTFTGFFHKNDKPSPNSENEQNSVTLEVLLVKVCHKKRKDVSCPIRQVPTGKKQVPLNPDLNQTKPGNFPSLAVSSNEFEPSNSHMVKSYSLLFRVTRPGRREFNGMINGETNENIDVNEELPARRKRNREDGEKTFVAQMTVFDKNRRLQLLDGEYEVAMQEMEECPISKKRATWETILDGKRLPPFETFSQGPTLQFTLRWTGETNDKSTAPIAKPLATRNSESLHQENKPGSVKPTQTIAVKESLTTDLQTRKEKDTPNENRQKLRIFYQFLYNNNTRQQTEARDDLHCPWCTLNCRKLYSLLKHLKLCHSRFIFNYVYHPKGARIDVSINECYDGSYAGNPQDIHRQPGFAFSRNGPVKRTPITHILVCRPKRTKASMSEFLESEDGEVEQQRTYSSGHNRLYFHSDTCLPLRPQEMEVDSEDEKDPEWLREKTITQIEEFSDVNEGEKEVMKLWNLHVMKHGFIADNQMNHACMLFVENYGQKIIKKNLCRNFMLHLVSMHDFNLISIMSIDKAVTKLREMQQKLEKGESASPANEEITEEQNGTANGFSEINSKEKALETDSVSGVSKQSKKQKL
T1 sequence (Q09028 whole entry partner): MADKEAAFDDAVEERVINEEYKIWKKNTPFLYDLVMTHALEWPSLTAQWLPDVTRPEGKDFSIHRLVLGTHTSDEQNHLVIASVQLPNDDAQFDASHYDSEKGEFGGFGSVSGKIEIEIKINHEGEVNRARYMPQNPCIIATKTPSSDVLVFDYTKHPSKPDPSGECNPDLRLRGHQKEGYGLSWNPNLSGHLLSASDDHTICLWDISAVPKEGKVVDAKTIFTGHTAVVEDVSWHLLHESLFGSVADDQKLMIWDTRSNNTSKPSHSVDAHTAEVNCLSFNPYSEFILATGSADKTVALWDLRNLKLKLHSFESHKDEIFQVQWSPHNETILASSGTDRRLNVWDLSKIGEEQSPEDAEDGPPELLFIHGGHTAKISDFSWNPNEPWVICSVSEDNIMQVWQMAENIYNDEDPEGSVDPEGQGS
T1 sequence (Q6ZN18 whole entry partner): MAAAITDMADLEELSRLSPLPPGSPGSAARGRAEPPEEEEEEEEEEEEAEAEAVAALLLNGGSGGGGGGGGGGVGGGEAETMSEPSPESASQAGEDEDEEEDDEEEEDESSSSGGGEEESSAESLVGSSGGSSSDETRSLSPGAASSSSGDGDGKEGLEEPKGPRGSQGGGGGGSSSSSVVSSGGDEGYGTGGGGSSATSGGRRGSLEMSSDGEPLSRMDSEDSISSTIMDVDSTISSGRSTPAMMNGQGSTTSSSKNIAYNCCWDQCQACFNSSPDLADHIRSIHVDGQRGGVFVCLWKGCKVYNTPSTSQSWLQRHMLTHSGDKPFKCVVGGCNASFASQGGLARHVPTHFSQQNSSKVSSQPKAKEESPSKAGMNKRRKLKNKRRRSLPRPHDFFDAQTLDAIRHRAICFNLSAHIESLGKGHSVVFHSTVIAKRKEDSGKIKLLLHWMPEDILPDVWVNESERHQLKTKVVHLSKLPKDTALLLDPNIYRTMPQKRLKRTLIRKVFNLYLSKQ

| SMILES | IC50 [µM] |
| --- | --- |
| CCN(c1cccc2c1C/C=C/CCc1cc(C)[nH]c(=O)c1CNC2=O)[C@H]1CC[C@H](N(C)CC(F)(F)F)CC1 [Example 59, (E)-10-(ethyl(trans-4-(methyl(2,2,2-trifluoroethyl)amino)cyclohexyl)amino)-3-methyl-5,6,15,16-tetrahydrobenzo[c]pyrido[4,3-j][1]azacyclododecine-1,14(2H,9H)-dione] | 0.316 |
| CCN(c1cccc2c1C/C=C/CCc1cc(C)[nH]c(=O)c1CNC2=O)C1CCN(Cc2cccc(C)n2)CC1 [Example 48, (E)-10-(ethyl(1-((6-methylpyridin-2-yl)methyl)piperidin-4-yl)amino)-3-methyl-5,6,15,16-tetrahydrobenzo[c]pyrido[4,3-j][1]azacyclododecine-1,14(2H,9H)-dione] | 0.316 |
| CCN(c1cccc2c1C/C=C/CCc1cc(C)[nH]c(=O)c1CNC2=O)[C@H]1CC[C@@H](N(C)C)CC1 [Example 55, (E)-10-((cis-4-(dimethylamino)cyclohexyl)(ethyl)amino)-3-methyl-5,6,15,16-tetrahydrobenzo[c]pyrido[4,3-j][1]azacyclododecine-1,14(2H,9H)-dione] | 0.251 |
| CCN(c1cccc2c1CCCCc1cc(C)[nH]c(=O)c1CNC2=O)[C@H]1CC[C@H](N(C)C)CC1 [Example 62, 9-((trans-4-(dimethylamino)cyclohexyl)(ethyl)amino)-3-methyl-5,6,7,8,14,15-hexahydro-1H-benzo[c]pyrido[4,3-i][1]azacycloundecine-1,13(2H)-dione] | 0.251 |
| CCN(c1cccc2c1C/C=C/CCc1cc(C)[nH]c(=O)c1CNC2=O)[C@H]1CC[C@H](N2CCC2)CC1 [Example 60, (E)-10-((trans-4-(azetidin-1-yl)cyclohexyl)(ethyl)amino)-3-methyl-5,6,15,16-tetrahydrobenzo[c]pyrido[4,3-j][1]azacyclododecine-1,14(2H,9H)-dione] | 1.26 |
| CCN(c1cccc2c1C/C=C/CCc1cc(C)[nH]c(=O)c1CNC2=O)[C@H]1CC[C@@H](NCCC(F)(F)F)CC1 [Example 82, (E)-10-(ethyl(cis-4-((3,3,3-trifluoropropyl)amino)cyclohexyl)amino)-3-methyl-5,6,15,16-tetrahydrobenzo[c]pyrido[4,3-j][1]azacyclododecine-1,14(2H,9H)-dione] | 0.251 |
| CCN(c1cccc2c1C/C=C/CCc1cc(C)[nH]c(=O)c1CNC2=O)C1CCC2(CC1)CNC2 [Example 66, (E)-10-(ethyl(2-azaspiro[3.5]nonan-7-yl)amino)-3-methyl-5,6,15,16-tetrahydrobenzo[c]pyrido[4,3-j][1]azacyclododecine-1,14(2H,9H)-dione] | 0.251 |
| CCN(c1cccc2c1C/C=C/CCc1cc(C)[nH]c(=O)c1CNC2=O)C1CC2(CC(N(C)C)C2)C1 (stereo not shown) [Example 71, (E)-10-((6-(dimethylamino)spiro[3.3]heptan-2-yl)(ethyl)amino)-3-methyl-5,6,15,16-tetrahydrobenzo[c]pyrido[4,3-j][1]azacyclododecine-1,14(2H,9H)-dione] | 0.251 |
| Cc1cc2c(c(=O)[nH]1)CNC(=O)c1cccc(N(CCO)C3CCOCC3)c1C/C=C/CC2 [Example 64, (E)-10-((2-hydroxyethyl)(tetrahydro-2H-pyran-4-yl)amino)-3-methyl-5,6,15,16-tetrahydrobenzo[c]pyrido[4,3-j][1]azacyclododecine-1,14(2H,9H)-dione] | 0.251 |
| CCN(c1cccc2c1C/C=C/CCc1cc(C)[nH]c(=O)c1CNC2=O)[C@H]1CC[C@@H](N2CC(F)C2)CC1 [Example 75, (E)-10-(ethyl(cis-4-(3-fluoroazetidin-1-yl)cyclohexyl)amino)-3-methyl-5,6,15,16-tetrahydrobenzo[c]pyrido[4,3-j][1]azacyclododecine-1,14(2H,9H)-dione] | 0.251 |

Other lines, results leading:

| IC50 [µM] | SMILES |
| --- | --- |
| 0.251 | CCOC(=O)C(C)(C)N1CCC(N(CC)c2cccc3c2C/C=C/CCc2cc(C)[nH]c(=O)c2CNC3=O)CC1 [Example 46, (E)-ethyl 2-(4-(ethyl(3-methyl-1,14-dioxo-1,2,5,6,9,14,15,16-octahydrobenzo[c]pyrido[4,3-j][1]azacyclododecin-10-yl)amino)piperidin-1-yl)-2-methylpropanoate] |
| 0.158 | CCN(c1cccc2c1C/C=C/CCc1cc(C)[nH]c(=O)c1CNC2=O)[C@H]1CC[C@@H](NC)CC1 [Example 74, (E)-10-(ethyl(cis-4-(methylamino)cyclohexyl)amino)-3-methyl-5,6,15,16-tetrahydrobenzo[c]pyrido[4,3-j][1]azacyclododecine-1,14(2H,9H)-dione formic acid salt] |
| 0.126 | CCN(c1cccc2c1C/C=C/CCc1cc(C)[nH]c(=O)c1CNC2=O)[C@H]1CC[C@H](N2CCOCC2)CC1 [Example 50, (E)-10-(ethyl(trans-4-morpholinocyclohexyl)amino)-3-methyl-5,6,15,16-tetrahydrobenzo[c]pyrido[4,3-j][1]azacyclododecine-1,14(2H,9H)-dione] |
| 0.126 | CCN(c1cccc2c1C/C=C/CCc1cc(C)[nH]c(=O)c1CNC2=O)C1CC2(CCNCC2)C1 [Example 68, (E)-10-(ethyl(7-azaspiro[3.5]nonan-2-yl)amino)-3-methyl-5,6,15,16-tetrahydrobenzo[c]pyrido[4,3-j][1]azacyclododecine-1,14(2H,9H)-dione] |
| 0.158 | CCN(c1cccc2c1C/C=C\Cc1cc(C)[nH]c(=O)c1CNC2=O)[C@H]1CC[C@H](N(C)C)CC1 [Example 61, (Z)-9-((trans-4-(dimethylamino)cyclohexyl)(ethyl)amino)-3-methyl-5,8,14,15-tetrahydro-1H-benzo[c]pyrido[4,3-i][1]azacycloundecine-1,13(2H)-dione] |
| 0.158 | CCN(CC)[C@H]1CC[C@H](N(CC)c2cccc3c2C/C=C/CCc2cc(C)[nH]c(=O)c2CNC3=O)CC1 [Example 49, (E)-10-((trans-4-(diethylamino)cyclohexyl)(ethyl)amino)-3-methyl-5,6,15,16-tetrahydrobenzo[c]pyrido[4,3-j][1]azacyclododecine-1,14(2H,9H)-dione] |
| 0.158 | CCN(c1cccc2c1C/C=C/CCc1cc(C)[nH]c(=O)c1CNC2=O)C1CCCNCC1 (stereo not shown) [Example 77, (E)-10-(azepan-4-yl(ethyl)amino)-3-methyl-5,6,15,16-tetrahydrobenzo[c]pyrido[4,3-j][1]azacyclododecine-1,14(2H,9H)-dione] |
| 0.2 | CCN(c1cccc2c1C/C=C/CCc1cc(C)[nH]c(=O)c1CNC2=O)[C@H]1CC[C@@H](N2CC(F)(F)C2)CC1 [Example 80, (E)-10-((cis-4-(3,3-difluoroazetidin-1-yl)cyclohexyl)(ethyl)amino)-3-methyl-5,6,15,16-tetrahydrobenzo[c]pyrido[4,3-j][1]azacyclododecine-1,14(2H,9H)-dione] |
| 0.1 | CCN(c1cccc2c1C/C=C/CCc1cc(C)[nH]c(=O)c1CNC2=O)C1CCC2(CC1)CN(C)C2 [Example 67, (E)-10-(ethyl(2-methyl-2-azaspiro[3.5]nonan-7-yl)amino)-3-methyl-5,6,15,16-tetrahydrobenzo[c]pyrido[4,3-j][1]azacyclododecine-1,14(2H,9H)-dione] |
| 0.2 | CCN(c1cccc2c1C/C=C/CCc1cc(C)[nH]c(=O)c1CNC2=O)[C@H]1CC[C@H](N2CC(F)(F)C2)CC1 [Example 81, (E)-10-((trans-4-(3,3-difluoroazetidin-1-yl)cyclohexyl)(ethyl)amino)-3-methyl-5,6,15,16-tetrahydrobenzo[c]pyrido[4,3-j][1]azacyclododecine-1,14(2H,9H)-dione] |
| 0.05 | CCN(c1cccc2c1C/C=C/CCc1cc(C)[nH]c(=O)c1CNC2=O)C1CCN(Cc2ccn(C)n2)CC1 [Example 45] |
| 0.126 | CCN(c1cccc2c1C/C=C/CCc1cc(C)[nH]c(=O)c1CNC2=O)[C@H]1CC[C@H](NC)CC1 [Example 73, (E)-10-(ethyl(trans-4-(methylamino)cyclohexyl)amino)-3-methyl-5,6,15,16-tetrahydrobenzo[c]pyrido[4,3-j][1]azacyclododecine-1,14(2H,9H)-dione formic acid salt] |
